From patent publication US10730883B2 (AbbVie Inc., priority 2015, dated 2020)
“Also recorded” adds a separate entry of the source. Counter-ions that a name gives are not always drawn. Each block holds one molecule with its values, some of them ahead of it.

Tests used:
[1] = Hygroscopicity / moisture sorption isotherm of solid state forms; type: physicochemical; details: for hygroscopicity: general statement on the solid state form
Source text: FIG. 6A is a moisture sorption isotherm corresponding to the Amorphous Freebase (via dehydration).
FIG. 6C is a moisture sorption isotherm corresponding to the Tartrate Hydrate.
FIG. 6D is a moisture sorption isotherm corresponding to the Freebase Anhydrate Form D.
In one embodiment, the Tartrate Hydrate has a moisture sorption isotherm profile showing a weight gain of about 1% to about 2% when relative humidity is increased from about 10% relative humidity to about 90% relative humidity at a temperature of 25° C.

[2] = Moisture sorption isotherm; type: physicochemical
Method: Moisture vapor isotherm data were collected with a DVS Advantage (Surface Measurement Systems Ltd, Alperton, United Kingdom). The sample powder (5 mg to 20 mg) was loaded on a tared pan of the DVS Advantage. The moisture sorption isotherm data were collected from 30-0-90-0-30% relative humidity in 10% relative humidity intervals. For each step, the dm/dt criteria was 0.001% over 5 minutes, a minimum dm/dt time of 30 minutes, and a maximum dm/dt of 120 minutes. Data was collected isothermally at 25° C. with a nitrogen flow rate of 200 cm^3/minute. The post DVS sample was kept at approximately 30% relative humidity before PXRD analysis.

[3] = Physical stability of solid state forms (dehydration, desolvation, conversion); type: physicochemical; details: for conversion upon drying: drying / ambient drying; for physical stability: general statement on the solid state form
Method: The Tartrate Hydrate dehydrated into Amorphous at low relative humidity and high temperature, e.g., <10% RH at 25° C. Shearing and compression potentially cause conversion to the amorphous tartrate, and therefore it is not suitable for compressing into tablet form. Additionally, the filter cake solidified during drying, resulting in the need for additional controls during drying.
In addition, Freebase Hydrate Form C can be grown into different particle sizes.
Freebase Anhydrate Form D can be manufactured only when the water content of the crystallization solvent is low, and will convert to Freebase Hydrate Form C in solutions at high water content. The manufacture of Freebase Anhydrate Form D thus requires strict control of water content. Freebase Anhydrate Form D is slow to crystallize, and difficult to manufacture in higher yield. […] Freebase Hydrate Form C will convert to Freebase Anhydrate Form D in a solution of ethyl acetate with low water content.
The resulting amorphous hydrochloride is hygroscopic. Yields obtained for each of the crystalline hydrochlorides generally have been in the 10% to 15% range.

[4] = Stability of isolated solid form at ambient conditions; type: physicochemical; details: after isolation
Equilibrium solubility = type: physicochemical
[5] = Chemical stability of solid state forms in closed vials at controlled temperature and relative humidity; type: physicochemical; details: general statement on the solid state form
Method: The Amorphous Freebase, however, is hygroscopic and can comprise as much as 12% by weight water at 25° C./90% relative humidity. Environmental controls potentially are required to ensure appropriate control of potency and water content during storage, dispensing, and handling of the Amorphous Freebase.
The Tartrate Hydrate, however, potentially will convert to an amorphous tartrate below 10% relative humidity, when heated, or when compressed or under shear.

[6] = Solid state accelerated stability study; type: physicochemical; details: for chemical stability: solid state accelerated stability study
Method: Samples (approximately 1 mg to 2 mg) of the solid state form were weighed into glass vials and tested as described below.

[7] = Study 2-Part 2: methotrexate PK alone or with Compound 1 in subjects with RA; type: in vivo; details: human; for CL renal: urine and plasma
[8] = Pharmacokinetic interaction of Compound 1 and methotrexate (dose-normalized AUC); type: in vivo, human; details: FIG. 35B
isolated Treg cells = isolated Treg cells and rheumatoid arthritis synovial fluid; cited from earlier work

Molecule: CC[C@@H]1CN(C(=O)NCC(F)(F)F)C[C@@H]1c1cnc2cnc3[nH]ccc3n12 [Freebase Anhydrate Form D, (3S,4R)-3-ethyl-4-(3H-imidazo[1,2-a]pyrrolo[2,3-e]pyrazin-8-yl)-N-(2,2,2-trifluoroethyl)pyrrolidine-1-carboxamide]
- water uptake (reversibly hygroscopic) ([1]; 90% RH at 25° C.): up to 1.8%
- hygroscopicity [1]: reversibly hygroscopic
- Moisture sorption (reversibly sorbs up to) ([2]; 90% relative humidity at 25° C.): up to 1.8%

Molecule: CC[C@@H]1CN(C(=O)NCC(F)(F)F)C[C@@H]1c1cnc2cnc3[nH]ccc3n12 [Freebase Hydrate Form B, (3S,4R)-3-ethyl-4-(3H-imidazo[1,2-a]pyrrolo[2,3-e]pyrazin-8-yl)-N-(2,2,2-trifluoroethyl)pyrrolidine-1-carboxamide]
- conversion upon drying [3]: convert to the Amorphous Freebase upon drying
- physical stability [3]: not physically stable
- Stability at ambient conditions [4]: not stable after isolation at ambient conditions and readily dehydrated to the Amorphous Freebase; also recorded: not stable at ambient conditions and readily dehydrates to the Amorphous Freebase

Molecule: CC[C@@H]1CN(C(=O)NCC(F)(F)F)C[C@@H]1c1cnc2cnc3[nH]ccc3n12 [Freebase Hydrate Form C, (3S,4R)-3-ethyl-4-(3H-imidazo[1,2-a]pyrrolo[2,3-e]pyrazin-8-yl)-N-(2,2,2-trifluoroethyl)pyrrolidine-1-carboxamide]
- Solubility (Equilibrium solubility; FasSIF (pH 6.5 at 37° C.)): 0.22 mg/mL
- Solubility (Equilibrium solubility; pH 1 at 25° C.): 55.3 mg/mL
- chemical stability [5]: excellent chemical stability; also recorded: good chemical stability
- temperature up to which no dehydration occurs ([3]; drying): around 110 °C
- physical stability [3]: excellent and good
- stability under mechanical processing ([3]; milling, compression): stable under mechanical processing
- hygroscopicity [1]: low hygroscopicity
- Growth of degradation products ([6]; 80/75 10 days, 50/75 6 weeks, 40/75 and 30/65 24 weeks, 25/60 12 months (Temp ° C./% RH)): no growth of degradation products
- chemical stability [6]: acceptable
- Change in attributes evaluated (description, crystal form, assay, impurities and water content) ([6]; storage conditions of the accelerated stability study): No material change
- hygroscopicity ([2]; moisture sorption isotherm analysis, 25° C.): not hygroscopic

Molecule: CC[C@@H]1CN(C(=O)NCC(F)(F)F)C[C@@H]1c1cnc2cnc3[nH]ccc3n12 [Freebase Solvate Form A, (3S,4R)-3-ethyl-4-(3H-imidazo[1,2-a]pyrrolo[2,3-e]pyrazin-8-yl)-N-(2,2,2-trifluoroethyl)pyrrolidine-1-carboxamide]
- conversion upon drying [3]: convert to the Amorphous Freebase upon drying
- physical stability [3]: not physically stable
- Stability at ambient conditions [4]: not stable after isolation at ambient conditions and readily dehydrated to the Amorphous Freebase

Molecule: CC[C@@H]1CN(C(=O)NCC(F)(F)F)C[C@@H]1c1cnc2cnc3[nH]ccc3n12 [Hydrochloride Solvate Form AA, (3S,4R)-3-ethyl-4-(3H-imidazo[1,2-a]pyrrolo[2,3-e]pyrazin-8-yl)-N-(2,2,2-trifluoroethyl)pyrrolidine-1-carboxamide]
- conversion upon drying [3]: convert to an amorphous hydrochloride upon ambient drying

Molecule: CC[C@@H]1CN(C(=O)NCC(F)(F)F)C[C@@H]1c1cnc2cnc3[nH]ccc3n12 [Hydrochloride Solvate Form BB, (3S,4R)-3-ethyl-4-(3H-imidazo[1,2-a]pyrrolo[2,3-e]pyrazin-8-yl)-N-(2,2,2-trifluoroethyl)pyrrolidine-1-carboxamide]
- conversion upon drying [3]: convert to an amorphous hydrochloride upon ambient drying

Molecule: CC[C@@H]1CN(C(=O)NCC(F)(F)F)C[C@@H]1c1cnc2cnc3[nH]ccc3n12 [Hydrochloride Solvate Form CC, (3S,4R)-3-ethyl-4-(3H-imidazo[1,2-a]pyrrolo[2,3-e]pyrazin-8-yl)-N-(2,2,2-trifluoroethyl)pyrrolidine-1-carboxamide]
- conversion upon drying [3]: convert to an amorphous hydrochloride upon ambient drying

Molecule: CC[C@@H]1CN(C(=O)NCC(F)(F)F)C[C@@H]1c1cnc2cnc3[nH]ccc3n12 [L-Maleate Form AAA, (3S,4R)-3-ethyl-4-(3H-imidazo[1,2-a]pyrrolo[2,3-e]pyrazin-8-yl)-N-(2,2,2-trifluoroethyl)pyrrolidine-1-carboxamide]
- chemical stability [5]: less chemically stable

Molecule: CC[C@@H]1CN(C(=O)NCC(F)(F)F)C[C@@H]1c1cnc2cnc3[nH]ccc3n12 [L-Maleate Form BBB, (3S,4R)-3-ethyl-4-(3H-imidazo[1,2-a]pyrrolo[2,3-e]pyrazin-8-yl)-N-(2,2,2-trifluoroethyl)pyrrolidine-1-carboxamide]
- chemical stability [5]: less chemically stable
- Degradation on storage ([6]; 50° C./75% relative humidity (open and closed glass vials)): degraded to products that were not observed for the Freebase Hydrate Form C or the Tartrate Hydrate
- chemical stability ([6]; listed as L-maleate salt): prone to chemical degradation

- hygroscopicity [1]: hygroscopic
Molecule: CCC1CN(C(=O)NCC(F)(F)F)CC1c1cnc2cnc3[nH]ccc3n12.Cl (stereo not drawn) [amorphous hydrochloride]

- Tmax ([7]; plasma, 6 mg, Compound 1 6 mg BID Group, Day 1 (alone)): 2.5 h
- half-life ([7]; plasma, 6 mg, Compound 1 6 mg BID Group, Day 29 (with Compound 1), harmonic mean ± pseudo-SD, read-out: t1/2 (terminal elimination half-life) (converted)): 4.7 ± 1.3 h
- Tmax ([7]; plasma, 12 mg, Compound 1 12 mg BID Group, Day 29 (with Compound 1)): 2.5 h
- Tmax ([7]; plasma, 24 mg, Compound 1 24 mg BID Group, Day 1 (alone)): 3 h
- Tmax ([7]; plasma, 24 mg, Compound 1 24 mg BID Group, Day 29 (with Compound 1)): 2.5 h
- CL renal ([7]; 6 mg, Compound 1 6 mg BID Group, Day 1 (alone)): 110 mL/min
- CL renal ([7]; 6 mg, Compound 1 6 mg BID Group, Day 29 (with Compound 1)): 90.5 mL/min
- CL renal ([7]; 12 mg, Compound 1 12 mg BID Group, Day 1 (alone)): 102 mL/min
- CL renal ([7]; 12 mg, Compound 1 12 mg BID Group, Day 29 (with Compound 1)): 79.7 mL/min
- CL renal ([7]; 24 mg, Compound 1 24 mg BID Group, Day 1 (alone)): 124 mL/min
- CL renal ([7]; 24 mg, Compound 1 24 mg BID Group, Day 29 (with Compound 1)): 107 mL/min
- CL renal ([7]; Placebo group, Day 1): 72 mL/min
- CL renal ([7]; Placebo group, Day 29): 96.7 mL/min
- effect of concomitant Compound 1 administration on methotrexate dose-normalized AUC [8]: lack of effect
Molecule: CN(Cc1cnc2nc(N)nc(N)c2n1)c1ccc(C(=O)N[C@@H](CCC(=O)O)C(=O)O)cc1 [methotrexate]

B1: BT-061: humanized agonistic monoclonal antibody that binds to a unique epitope of human CD4 (antibody, chains of the INN, looked up, V domains shown)
VH: EEQLVESGGGLVKPGGSLRLSCAASGFSFSDCRMYWLRQAPGKGLEWIGVISVKSENYGANYAESVRGRFTISRDDSKNTVYLQMNSLKTEDTAVYYCSASYYRYDVGAWFAYWGQGTLVTVSS
VL: DIVMTQSPDSLAVSLGERATINCRASKSVSTSGYSYIYWYQQKPGQPPKLLIYLASILESGVPDRFSGSGSGTDFTLTISSLQAEDVAVYYCQHSRELPWTFGQGTKVEIK
- CD4+ and CD8+ T effector cell proliferation (isolated Treg cells): suppression
- expression of pro-inflammatory cytokines (isolated Treg cells): reduction
- production of the anti-inflammatory cytokine TGFβ (isolated Treg cells): increase
